In ChEMBL document CHEMBL4007488, “Amphiphilic Indole Derivatives as Antimycobacterial Agents: Structure-Activity Relationships and Membrane Targeting Properties” (J Med Chem, 2017):

What was measured:
[1] = test system: Mycobacterium tuberculosis; experiment: Antimycobacterial activity against Mycobacterium tuberculosis H37Rv ATCC 27294 assessed as growth inhibition at 10 uM after 5 days relative to control; assay type: functional; conditions: H37Rv ATCC 27294, 120 h, read-out: GI
[2] = test system: Mycolicibacterium smegmatis; experiment: Antimycobacterial activity against Mycobacterium smegmatis MC2 155 ATCC 700084 assessed as growth inhibition at 10 uM after 5 days relative to control; assay type: functional; conditions: MC2 155 ATCC 700084, 120 h, read-out: GI

Compound	inhibition of growth at 10 µM [1] [%]	inhibition of growth at 10 µM [2] [%]
CCCCCCCCn1cc(CN2CCC(C)CC2)c2cc(F)ccc21	99	99
CCCCNC(=O)Cn1cc(CN2CCCCC2)c2cc(F)ccc21	99	99
CCCCCCCCn1cc(CN2CCN(CC)CC2)c2cc(F)ccc21	99	99
CCCCCCCCn1cc(CN2CCCC2)c2cc(F)ccc21	99	99
CC(C)=CCC/C(C)=C/Cn1cc(CN2CCC3(CC2)OCCO3)c2cc(F)ccc21	99	99
CCCN(CCC)Cc1cn(C/C=C(\C)CCC=C(C)C)c2ccc(F)cc12	99	99
CCN(CC)Cc1cn(C/C=C(\C)CCC=C(C)C)c2ccc(F)cc12	99	99
CCCCCCCCn1cc(CN2CCCCC2)c2c(F)cccc21	99	99
CCCCCCCCn1cc(CNC23CC4CC(CC(C4)C2)C3)c2cccc(F)c21	99	99
CC(C)=CCC/C(C)=C/Cn1cc(CN2CCSCC2)c2cc(F)ccc21	99	99
CCCCCCCCn1cc(CN2CCC3(CC2)OCCO3)c2cc(F)ccc21	99	99
N#CCCCn1cc(CN2CCCCC2)c2cc(F)ccc21	99	99
CCCCCCCCn1cc(CN(CC)CCC)c2cc(F)ccc21	99	99
CCCCCCCCn1cc(CN2CCCCCC2)c2cc(F)ccc21	99	99
CCCCCCCCn1cc(CN2CCSCC2)c2cc(F)ccc21	99	99
CC(C)=CCC/C(C)=C/Cn1cc(CN2CCCCC2)c2ccccc21	99	99
CCCCCCCCn1cc(CNC2CCCCCC2)c2cc(F)ccc21	99	99
CC(C)=CCC/C(C)=C/Cn1cc(CN2CCOCC2)c2cc(F)ccc21	99	99
CCCCCCCCn1cc(CNC2CC2)c2cc(F)ccc21	99	99
CCCCCCCCn1cc(CN2CCC(C)CC2)c2cccc(F)c21	99	99
CC(C)=CCC/C(C)=C/Cn1cc(CN2CCCC2)c2cc(F)ccc21	99	99
CCCCCCCCn1cc(CN2CCCCCC2)c2ccc(OC)cc21	99	99
CC(C)=CCC/C(C)=C/Cn1cc(CN2CCS(=O)(=O)CC2)c2cc(F)ccc21	99	99
CCCCCCCCn1cc(CN(CCC)CCC)c2cc(F)ccc21	99	99
CC(C)=CCC/C(C)=C/Cn1cc(CN2CCCCC2)c2cc(Cl)ccc21	99	99
Fc1ccc2[nH]cc(CN3CCCCC3)c2c1	99	99

Compound	inhibition of growth at 10 µM [1] [%]	inhibition of growth at 10 µM [2] [%]
CC(C)=CCC/C(C)=C/Cn1cc(CN2CCCCCC2)c2cc(F)ccc21	99	99
CC(C)=CCC/C(C)=C/Cn1cc(CN(C)C)c2cc(F)ccc21	99	99
CCCCCCCCn1cc(CN2CCCCCC2)c2cc(OC)ccc21	99	99
CCCCCCCCn1cc(CN2CCCCC2)c2ccc(OC)cc21	99	99
CCCCn1cc(CN2CCCCC2)c2cc(F)ccc21	99	99
CCCCCCCCn1cc(CN2CCCCC2)c2cc(F)ccc21	99	99
CCCCCCCCn1cc(CN2CCCCCC2)c2c(OC)cccc21	99	99
CC(C)=CCC/C(C)=C/Cn1cc(CNC2CCCCCC2)c2cc(F)ccc21	99	99
CCCCN(CCCC)Cc1cn(C/C=C(\C)CCC=C(C)C)c2ccc(F)cc12	99	99
CCCCCCCCn1cc(CNCCC)c2cc(F)ccc21	99	99
CCCCCCCCn1cc(CN2CCC3(CC2)OCCO3)c2cccc(F)c21	99	99
CCCCCCCCn1cc(CN2CCC(C)CC2)c2cc(OC)ccc21	99	99
CCCCCCCCn1cc(CNC2CCCC2)c2cc(F)ccc21	99	99
Fc1ccc2c(c1)c(CN1CCCCC1)cn2CCC1CCCCC1	99	99
CCCCCCCCn1cc(CN2CCC3(CC2)OCCO3)c2cccc(OC)c21	99	99
CC(C)=CCC/C(C)=C/Cn1cc(CN2CCN(C)CC2)c2cc(F)ccc21	99	99
CC(C)=CCC/C(C)=C/Cn1cc(C(=O)N2CCCCC2)c2cc(F)ccc21	99	99
CCN1CCN(Cc2cn(C/C=C(\C)CCC=C(C)C)c3ccc(F)cc23)CC1	99	99
CCCN(C)Cc1cn(C/C=C(\C)CCC=C(C)C)c2ccc(F)cc12	99	99
CCCCCCCCn1cc(CN(C)C)c2cc(F)ccc21	99	99
CCCCCCCCn1cc(CNC23CC4CC(CC(C4)C2)C3)c2cc(F)ccc21	99	99
CCCCCCCCn1cc(CNC23CC4CC(CC(C4)C2)C3)c2ccc(OC)cc21	99	99
Fc1ccc2c(c1)c(CN1CCCCC1)cn2Cc1ccccc1	99	99
CCCCCCCCn1cc(CN2CCCCC2)c2cc(Br)ccc21	99	99
CCCCCCCCn1cc(CN2CCC3(CC2)OCCO3)c2cc(OC)ccc21	99	99
CC(C)=CCC/C(C)=C/Cn1cc(CNC23CC4CC(CC(C4)C2)C3)c2cc(F)ccc21	99	99

Compound	inhibition of growth at 10 µM [1] [%]	inhibition of growth at 10 µM [2] [%]
CCCCCCCCn1cc(CN2CCC(C)CC2)c2ccc(F)cc21	99	99
O=C(Cn1cc(CN2CCCCC2)c2cc(F)ccc21)NC1CC1	99	99
CCCCCCCCn1ccc2cc(F)ccc21	99	99
CCCCCCCCn1cc(CN2CCCCCC2)c2ccc(F)cc21	99	99
CCCCCCCCn1cc(CN2CCC3(CC2)OCCO3)c2c(OC)cccc21	99	99
CCCCCCCCn1cc(CN2CCCCCC2)c2cccc(F)c21	99	99
CCCCCCCCn1cc(CN2CCCCC2)c2ccc(F)cc21	99	99
CCCCCCCCn1cc(CNC23CC4CC(CC(C4)C2)C3)c2c(OC)cccc21	99	99
CCCN(CC)Cc1cn(C/C=C(\C)CCC=C(C)C)c2ccc(F)cc12	99	99
CCCCCCCCn1cc(CNC23CC4CC(CC(C4)C2)C3)c2ccc(F)cc21	99	99
Fc1ccc2c(c1)c(CN1CCCCC1)cn2CCCOc1ccccc1	99	99
CC(C)=CCC/C(C)=C/Cn1cc(CN2CCCCC2)c2cccnc21	99	99
Fc1ccc2c(c1)c(CN1CCCCC1)cn2CCCc1ccccc1	99	99
COc1ccc2c(c1)c(CN1CCCCC1)cn2C/C=C(\C)CCC=C(C)C	99	99
CC(C)=CCC/C(C)=C/Cn1ccc2cc(F)ccc21	99	99
CCCCCCCCn1cc(CN2CCC(C)CC2)c2c(OC)cccc21	99	99
CCCCCCCCn1cc(CN2CCCCC2)c2ccccc21	99	99
CCCCCCCCn1cc(CN2CCCCC2)c2cc(OC)ccc21	99	99
CCCCCCCCn1cc(CNC23CC4CC(CC(C4)C2)C3)c2cc(OC)ccc21	99	99
CCCCCCCCn1cc(CN(C)CCC)c2cc(F)ccc21	99	99
CCCCCCCCn1cc(CN2CCCCC2)c2c(OC)cccc21	99	99
CCCCCCCCn1cc(CN(CCCC)CCCC)c2cc(F)ccc21	99	99
CC(C)=CCC/C(C)=C/Cn1cc(CNC2CCCC2)c2cc(F)ccc21	99	99
CCCCCCCCn1cc(CN2CCCCC2)c2cc(Cl)ccc21	99	99
CCCCCCCCn1cc(CN2CCOCC2)c2cc(F)ccc21	99	99
